Experimental findings from ChEMBL document CHEMBL1151855, “Synthesis of novel 1-alkyl-8-substituted-3-(3-methoxypropyl) xanthines as putative A(2B) receptor antagonists” (Bioorg Med Chem, 2009) are described below.

In assay [1] the target is T1, Adenosine receptor A2b (Homo sapiens, UniProt P29275).
T1 sequence (P29275 whole entry): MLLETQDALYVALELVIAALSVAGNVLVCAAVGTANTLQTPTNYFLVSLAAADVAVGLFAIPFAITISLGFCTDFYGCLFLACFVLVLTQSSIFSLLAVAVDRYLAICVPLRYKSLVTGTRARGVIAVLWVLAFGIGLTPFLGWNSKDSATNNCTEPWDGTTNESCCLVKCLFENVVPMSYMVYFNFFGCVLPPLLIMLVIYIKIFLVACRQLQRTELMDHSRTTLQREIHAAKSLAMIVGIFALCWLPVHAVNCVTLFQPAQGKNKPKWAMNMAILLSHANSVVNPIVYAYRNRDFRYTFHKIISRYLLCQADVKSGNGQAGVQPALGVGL
As to the kind of experiment: Binding affinity to human adenosine A2b receptor expressed in HEK293 cells. It is filed as cell-based.

Assay [2] addresses T2, Adenosine receptor A2a (Homo sapiens, UniProt P29274). Put plainly: Binding affinity to human adenosine A2a receptor expressed in human HeLa cells. Type of assay: cell-based.
Assay [3] has as its target T3, Adenosine receptor A1 (Rattus norvegicus, UniProt P25099).
T3 sequence (P25099 whole entry): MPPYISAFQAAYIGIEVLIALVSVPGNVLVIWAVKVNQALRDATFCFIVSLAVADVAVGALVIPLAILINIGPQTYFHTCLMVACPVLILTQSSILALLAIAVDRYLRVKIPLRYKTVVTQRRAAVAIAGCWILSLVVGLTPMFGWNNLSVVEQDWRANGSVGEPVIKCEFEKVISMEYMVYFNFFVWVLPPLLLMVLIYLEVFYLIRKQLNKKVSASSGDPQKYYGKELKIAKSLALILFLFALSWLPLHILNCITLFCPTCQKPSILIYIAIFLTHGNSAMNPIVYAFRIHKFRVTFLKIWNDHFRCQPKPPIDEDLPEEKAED
As to the kind of experiment: Binding affinity to rat cortex adenosine A1 receptor.

Assay [4] addresses T4, Adenosine receptor A3 (Homo sapiens, UniProt P0DMS8).
T4 sequence (P0DMS8 whole entry): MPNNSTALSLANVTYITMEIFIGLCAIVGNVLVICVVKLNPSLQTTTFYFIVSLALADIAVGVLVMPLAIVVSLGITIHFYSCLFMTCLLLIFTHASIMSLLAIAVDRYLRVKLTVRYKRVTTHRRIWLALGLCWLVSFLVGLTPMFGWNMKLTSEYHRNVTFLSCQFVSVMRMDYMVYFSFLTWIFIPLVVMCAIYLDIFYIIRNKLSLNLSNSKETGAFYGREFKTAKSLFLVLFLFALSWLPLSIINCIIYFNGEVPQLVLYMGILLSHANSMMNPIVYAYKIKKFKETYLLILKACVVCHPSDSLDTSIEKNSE
Put plainly: Binding affinity to human adenosine A3 receptor expressed in human HeLa cells. It is filed as cell-based.

Assay [5] has as its target T5, Adenosine receptor A2b (Homo sapiens) (UniProt P29275).
T5 sequence (whole entry): T1 sequence (P29275 whole entry)
As to the kind of experiment: Displacement of [3H]DPCPX from human adenosine A2b receptor expressed in HEK293 cells at 1 uM. It is filed as cell-based. Background: Displacement assays read how much labelled ligand stays bound in the presence of the test substance.

Assay [6] addresses T2, Adenosine receptor A2a. Put plainly: Displacement of [3H]ZM241385 from human adenosine A2a receptor expressed in human HeLa cells at 1 uM. It is filed as cell-based.
The target in assay [7] is T6, Adenosine receptor A1 (Rattus norvegicus) (UniProt P25099).
T6 sequence (whole entry): T3 sequence (P25099 whole entry)
As to the kind of experiment: Displacement of [3H]DPCPX from rat cortex adenosine A1 receptor at 1 uM.

For assay [8], the target named is T7, Adenosine receptor A3 (Homo sapiens) (UniProt P0DMS8).
T7 sequence (whole entry): T4 sequence (P0DMS8 whole entry)
As to the kind of experiment: Displacement of [3H]NECA from human adenosine A3 receptor expressed in human HeLa cells at 1 uM. Type of assay: cell-based.

T2 sequence (P29274 whole entry): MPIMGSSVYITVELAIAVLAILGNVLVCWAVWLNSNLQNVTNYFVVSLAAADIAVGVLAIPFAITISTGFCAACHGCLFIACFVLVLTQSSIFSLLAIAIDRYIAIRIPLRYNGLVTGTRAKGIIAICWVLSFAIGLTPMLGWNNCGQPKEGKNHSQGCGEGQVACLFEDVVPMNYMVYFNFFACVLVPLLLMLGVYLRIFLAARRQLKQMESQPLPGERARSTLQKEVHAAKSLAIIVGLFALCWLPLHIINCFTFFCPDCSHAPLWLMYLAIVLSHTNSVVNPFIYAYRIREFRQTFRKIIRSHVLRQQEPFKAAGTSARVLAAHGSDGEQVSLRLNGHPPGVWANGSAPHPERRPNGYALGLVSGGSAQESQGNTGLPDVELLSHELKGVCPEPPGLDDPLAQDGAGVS

What is called Ki is the equilibrium dissociation constant of an inhibitor or competing ligand from its target. In the case of `CCCn1c(=O)c2[nH]c(-c3ccccc3)nc2n(CCCOC)c1=O`, the results for the Ki in assay [1] and in assay [2] were 324 nM and 339 nM, respectively.

For the compound `CCn1c(=O)c2[nH]c(-c3ccc(OCC(=O)Nc4ccc(C#N)cc4)cc3)nc2n(CCCOC)c1=O`, the Ki was 9.12 nM in assay [1], 112 nM in assay [2], 676 nM in assay [3] and 398 nM in assay [4].

`CCn1c(=O)c2[nH]c(-c3ccc(OCC(=O)Nc4nc5ccccc5[nH]4)cc3)nc2n(CCCOC)c1=O`: the inhibitory constant (Ki) in assay [1] was 93.3 nM; in assay [2], 204 nM.

On to `CCCn1c(=O)c2[nH]c(-c3cccs3)nc2n(CCCOC)c1=O`, for which the Activity in assay [5] is 77%; in assay [6] it was 25%.

On to `COCCCn1c(=O)n(CCOC)c(=O)c2[nH]c(-c3ccccc3)nc21`, for which the Activity is 70% in assay [5] and 54% in assay [6].

In the case of `CCS(=O)(=O)CCn1c(=O)c2[nH]c(Cc3ccco3)nc2n(CCCOC)c1=O`, the Activity in assay [5] is 15%; in assay [6], 6%.

In the case of `CCSCCn1c(=O)c2[nH]c(-c3ccccc3)nc2n(CCCOC)c1=O`, the Activity came out at 41% in assay [5] and 8% in assay [6].

As for `CCn1c(=O)c2[nH]c(-c3ccc(OCC(=O)N4CCc5ccccc5C4)cc3)nc2n(CCCOC)c1=O`, the inhibitory constant (Ki) is 49 nM in assay [1], 229 nM in assay [2] and 100 nM in assay [3].

`CCn1c(=O)c2[nH]c(-c3ccc(-c4ccccc4)cc3)nc2n(CCCOC)c1=O`: the Ki in assay [1] was 70.8 nM; in assay [2], 525 nM.

`COCCCn1c(=O)n(CC(C)C)c(=O)c2[nH]c(-c3ccccc3)nc21`: the Activity in assay [5] came out at 30%; in assay [6] it was 25%.

Take `CCn1c(=O)c2c(nc(-c3ccc(-c4ccccc4)cc3)n2C)n(CCCOC)c1=O`: the Activity worked out at 6% in assay [5] and 5% in assay [6].

Consider `CCn1c(=O)c2[nH]c(-c3ccc(OCC(=O)Nc4ccc(Br)cc4)cc3)nc2n(CCCOC)c1=O`, for which the inhibition constant (Ki) in assay [1] was 2.88 nM; in assay [2] it was 97.7 nM; in assay [3] it was 100 nM; in assay [4] it was 1290 nM.

As for `CCCn1c(=O)c2[nH]c(CCCc3ccccc3)nc2n(CCCOC)c1=O`, the Activity in assay [5] was 70%; in assay [6] it was 26%.

Regarding `CCCn1c(=O)c2[nH]c(C3CCCC3)nc2n(CCCOC)c1=O`, the results for the Activity in assay [5] and in assay [6] were 62% and 84%, respectively.

For the compound `CCSCCn1c(=O)c2[nH]c(Cc3ccco3)nc2n(CCCOC)c1=O`, the Ki in assay [1] was 2000 nM. In assay [6], this compound had an Activity of 1%.

`CCS(=O)(=O)CCn1c(=O)c2[nH]c(-c3ccccc3)nc2n(CCCOC)c1=O`: the Activity worked out at 0% in assay [5] and 20% in assay [6].

For the compound `CCn1c(=O)c2[nH]c(-c3ccc(OCC(=O)Nc4ccccn4)cc3)nc2n(CCCOC)c1=O`, the Ki is 15.5 nM in assay [1] and 170 nM in assay [2]. For the same compound, the Activity in assay [7] turned out to be 2%; in assay [8], 69%.

`CCn1c(=O)c2[nH]c(-c3ccco3)nc2n(CCCOC)c1=O`: the figures for the Ki in assay [1] and in assay [2] were 138 nM and 490 nM, respectively.

Regarding `CCn1c(=O)c2[nH]c(-c3ccc(OCC(=O)Nc4ccc(O)cc4)cc3)nc2n(CCCOC)c1=O`, the inhibitory constant (Ki) in assay [1] was 15.5 nM; in assay [2], 417 nM; in assay [3] it was 174 nM. This compound also had an Activity in assay [8] of 65%.

For the compound `CCn1c(=O)c2[nH]c(-c3ccc(OCC(=O)NC4CCCC4)cc3)nc2n(CCCOC)c1=O`, the inhibitory constant (Ki) is 77.6 nM in assay [1] and 95.5 nM in assay [2].

As for `CCSCCn1c(=O)c2[nH]c(-c3ccco3)nc2n(CCCOC)c1=O`, the values for the Ki in assay [1] and in assay [2] were 490 nM and 5010 nM, respectively.

In the case of `CCCn1c(=O)c2[nH]c(-c3ccc(-c4ccccc4)cc3)nc2n(CCCOC)c1=O`, the Activity in assay [5] was found to be 66%; in assay [6] it was 14%.

Take `CCn1c(=O)c2[nH]c(Cc3ccco3)nc2n(CCCOC)c1=O`: the Activity is 17% in assay [5] and 11% in assay [6].

On to `CCn1c(=O)c2[nH]c(-c3ccc(OCC(=O)Nc4ccon4)cc3)nc2n(CCCOC)c1=O`, for which the Ki in assay [1] was 20.9 nM; in assay [2], 214 nM; in assay [3], 95.5 nM; in assay [4], 933 nM.

Consider `CCn1c(=O)c2[nH]c(-c3cccs3)nc2n(CCCOC)c1=O`, for which the results for the Ki in assay [1] and in assay [2] were 126 nM and 219 nM, respectively.

As for `CCn1c(=O)c2[nH]c(-c3ccc(OCC(=O)Nc4ccccc4)cc3)nc2n(CCCOC)c1=O`, the Ki in assay [1] is 3.02 nM; in assay [2] it was 87.1 nM; in assay [3], 36.3 nM; in assay [4] it was 2510 nM.

As to `CCOCCn1c(=O)c2[nH]c(-c3ccccc3)nc2n(CCCOC)c1=O`, the Activity came out at 21% in assay [5] and 51% in assay [6].

With `CCn1c(=O)c2[nH]c(-c3ccc[nH]3)nc2n(CCCOC)c1=O`, the Ki is 85.1 nM in assay [1] and 209 nM in assay [2].

Consider `CCn1c(=O)c2[nH]c(-c3ccc(OCC(=O)Nc4cccnc4)cc3)nc2n(CCCOC)c1=O`, for which the inhibition constant Ki was 33.9 nM in assay [1], 759 nM in assay [2], 162 nM in assay [3] and 95.5 nM in assay [4].

Consider `CCn1c(=O)c2[nH]c(-c3ccc(OCC(=O)Nc4ccc(F)cc4)cc3)nc2n(CCCOC)c1=O`, for which the inhibitory constant (Ki) in assay [1] was 3.02 nM; in assay [2], 56.2 nM; in assay [3], 20.9 nM; in assay [4], 955 nM.

Take `CCn1c(=O)c2[nH]c(-c3ccc(OCC(=O)Nc4ccc(N(C)C)cc4)cc3)nc2n(CCCOC)c1=O`: the Ki in assay [1] was 174 nM; in assay [2], 1780 nM; in assay [3], 871 nM; in assay [4] it was 209 nM.

`CCCn1c(=O)c2[nH]c(-c3ccc[nH]3)nc2n(CCCOC)c1=O`: the figures for the Ki in assay [1] and in assay [2] were 148 nM and 398 nM, respectively.

For the compound `CC[S+]([O-])CCn1c(=O)c2[nH]c(-c3ccccc3)nc2n(CCCOC)c1=O` (configuration not stated), the values for the Activity in assay [5] and in assay [6] were 11% and 18%, respectively.

Turning to `CCn1c(=O)c2c(nc(-c3ccco3)n2C)n(CCCOC)c1=O`, the results for the Activity in assay [5] and in assay [6] were 1% and 14%, respectively.

Turning to `CCCCCn1c(=O)c2[nH]c(-c3ccccc3)nc2n(CCCOC)c1=O`, the results for the Activity in assay [5] and in assay [6] were 49% and 0%, respectively.

In the case of `CCn1c(=O)c2[nH]c(-c3ccccc3)nc2n(CCCOC)c1=O`, the Activity in assay [5] came out at 67%; in assay [6] it was 49%.

Consider `CCn1c(=O)c2[nH]c(-c3ccc(OCC(=O)Nc4ccc(C(C)=O)cc4)cc3)nc2n(CCCOC)c1=O`, for which the Ki in assay [1] was 11.7 nM; in assay [2] it was 148 nM; in assay [4] it was 708 nM. The Activity in assay [7] was found to be 68%.

In the case of `CC[S+]([O-])CCn1c(=O)c2[nH]c(Cc3ccco3)nc2n(CCCOC)c1=O` (configuration not stated), the Activity in assay [5] stood at 0%; in assay [6], 12%.
